SMILES strings stand for the structures.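 All cell lines were grown in 96-well plates and treated with compound for 48 hours. Here, GI50 denotes the concentration required for 50% inhibition of growth. At the TGI there is no net growth.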

One assay relates to SK-OV-3 ovarian. Description: DTP human tumour cell line panel, 48 h.
Turning to `NCCSc1nc2ccccc2c(=O)n1-c1ccccc1`, the TGI was above 100 µM.
As for `Nc1cccc(Nc2nc3ccccc3nc2NS(=O)(=O)c2ccccc2)c1`, the TGI was above 100 µM.
`O=c1[nH]nc(Cc2ccc([N+](=O)[O-])cc2)n1CCO` came in with a TGI above 100 µM.
In turn, `N#Cc1c(-c2ccccc2)nc(-c2ccccc2)sc1=S` showed a concentration for total growth inhibition (TGI) above 100 µM.
`CCn1nc2c3c(ncn3C(C)(C)O2)c1=O` came in with a TGI above 100 µM.
`O=C(O)CC[N+]1=CCC(c2ccccc2)(c2ccccc2)O1` returned a TGI above 100 µM.
`O=C1CCCCC(=O)OC2(CCCCC2=O)CC1` (centres undefined) yielded a TGI above 100 µM.
With `CCC(C#N)NC(=O)NC(C#N)CC` (centres undefined), the TGI was above 100 µM.
In turn, `CCOC(=O)/C=C(/C(=O)OCC)n1ccc(N)nc1=O` yielded a concentration for total growth inhibition (TGI) above 100 µM.
Regarding `CCCSc1ccc2[nH]c(/N=C/c3ccco3)cc2c1`, the TGI was above 100 µM.
`Cc1cn(C2CC(n3cc(Cn4cc(Br)c(=O)[nH]c4=O)nn3)C(CO)O2)c(=O)[nH]c1=O` (centres undefined) came in with a TGI above 100 µM.
Take `CC1Cn2c(nc3ccccc32)NC1=O` (centres undefined): the TGI was above 100 µM.
On the same count and under the same terms, as for `O=c1nc2c(c(-c3ccccc3Cl)[nH]1)COC/C2=C\c1ccccc1Cl`, the figure is above 100 µM.

The next assay deals with T-47D breast. Description: DTP human tumour cell line panel, 48 h.
`CCC1(C(=O)OC(C)(C)C)OC12C(C)CCCC2C` (centres undefined) yielded a TGI above 100 µM.
Same read-out and setting: for `Cc1ccc(-c2cc(N)n(-c3nc4c(c(=O)n(C)c(=O)n4C)n3C)n2)cc1` the value was above 100 µM; for `CN(C)c1ccc(C2SCC(=O)N2NS(=O)(=O)c2cccc(C(=O)O)c2)cc1` (centres undefined), above 100 µM; for `COC(=O)[C@H](Cc1ccccc1)NC(=O)[C@H](Cc1ccccc1)NC(=O)[C@@H]1CCCN1C(=O)N[C@H]1C2C=CC(C2)C1C(=O)N1CCC[C@H]1C(=O)N[C@@H](C)C(=O)N[C@H](C(=O)OC)C(C)C` (some centres undefined), above 100 µM.
Take `O=C1c2ccccc2-c2nc(-c3cccc([N+](=O)[O-])c3)nnc21`: the TGI was above 100 µM.
As to `CNC(=O)Oc1ccc(-c2cn3cc(OC(=O)NC)ccc3n2)cc1`, the total growth inhibition concentration (TGI) was above 100 µM.
`CC(=O)N1N=C(c2ccc3ccccc3c2O)CC1C(=O)c1ccco1` (centres undefined) returned a TGI above 100 µM.
The compound `N#Cc1nc(-c2cccs2)oc1N` came in with a TGI above 100 µM.
Regarding `O=c1c2c([N+](=O)[O-])cccc2nc2[nH]c3ccccc3n12`, the concentration for total growth inhibition (TGI) was determined as 63.4 µM.
`O=C(NCCCCCCNCc1cccc2ccccc12)Nc1cccc2ccccc12`: the TGI is above 100 µM.
Regarding `OCC1OC(n2cnc3c(Cl)nc(Nc4ccccc4)nc32)CC1O` (centres undefined), the TGI was above 100 µM.
In the case of `CC1(CF)SCc2nc3ccccc3n21` (centres undefined), the TGI is above 100 µM.
For `C[C@]12CCc3nc(Nc4ccccc4)sc3C1=CC[C@@H]1[C@@H]2CC[C@]2(C)/C(=N/NC(N)=S)CC[C@@H]12`, the GI50 is 2.85 µM and the TGI was above 100 µM.
On to `NCCSc1nc2ccccc2c(=O)n1-c1ccccc1`, for which the TGI is above 100 µM.
`Nc1cccc(Nc2nc3ccccc3nc2NS(=O)(=O)c2ccccc2)c1` registered a TGI above 100 µM.
The compound `O=c1[nH]nc(Cc2ccc([N+](=O)[O-])cc2)n1CCO` returned a TGI above 100 µM.
In the case of `N#Cc1c(-c2ccccc2)nc(-c2ccccc2)sc1=S`, the TGI is above 100 µM.
On to `CCn1nc2c3c(ncn3C(C)(C)O2)c1=O`, for which the TGI was above 100 µM.
`O=C(O)CC[N+]1=CCC(c2ccccc2)(c2ccccc2)O1` yielded a TGI above 100 µM.
In turn, `O=C1CCCCC(=O)OC2(CCCCC2=O)CC1` (centres undefined) displayed a TGI above 100 µM.
For the compound `CCC(C#N)NC(=O)NC(C#N)CC` (centres undefined), the TGI was above 100 µM.
`CCOC(=O)/C=C(/C(=O)OCC)n1ccc(N)nc1=O` gave a TGI above 100 µM.
Same read-out and setting: as for `CCCSc1ccc2[nH]c(/N=C/c3ccco3)cc2c1`, the figure is above 100 µM; as for `Cc1cn(C2CC(n3cc(Cn4cc(Br)c(=O)[nH]c4=O)nn3)C(CO)O2)c(=O)[nH]c1=O` (centres undefined), above 100 µM.
With `C1CNCCNCCN1`, the TGI is above 100 µM.
As to `CC1Cn2c(nc3ccccc32)NC1=O` (centres undefined), the TGI is above 100 µM.
In the case of `O=c1nc2c(c(-c3ccccc3Cl)[nH]1)COC/C2=C\c1ccccc1Cl`, the TGI is above 100 µM.

The subject of a further assay is UACC-257 melanoma. In words: DTP human tumour cell line panel, 48 h.
In turn, `CCC1(C(=O)OC(C)(C)C)OC12C(C)CCCC2C` (centres undefined) came in with a TGI above 100 µM.
Regarding `Cc1ccc(-c2cc(N)n(-c3nc4c(c(=O)n(C)c(=O)n4C)n3C)n2)cc1`, the TGI is above 100 µM.
The compound `CN(C)c1ccc(C2SCC(=O)N2NS(=O)(=O)c2cccc(C(=O)O)c2)cc1` (centres undefined) registered a TGI above 100 µM.
Consider `COC(=O)[C@H](Cc1ccccc1)NC(=O)[C@H](Cc1ccccc1)NC(=O)[C@@H]1CCCN1C(=O)N[C@H]1C2C=CC(C2)C1C(=O)N1CCC[C@H]1C(=O)N[C@@H](C)C(=O)N[C@H](C(=O)OC)C(C)C` (some centres undefined), for which the TGI was above 100 µM.
`O=C1c2ccccc2-c2nc(-c3cccc([N+](=O)[O-])c3)nnc21`: the concentration for total growth inhibition (TGI) amounted to 13.3 µM.
Take `CNC(=O)Oc1ccc(-c2cn3cc(OC(=O)NC)ccc3n2)cc1`: the total growth inhibition concentration (TGI) is above 100 µM.
Still for that read-out and setting: as for `CC(=O)N1N=C(c2ccc3ccccc3c2O)CC1C(=O)c1ccco1` (centres undefined), the figure is above 100 µM; as for `N#Cc1nc(-c2cccs2)oc1N`, above 100 µM.
Take `O=c1c2c([N+](=O)[O-])cccc2nc2[nH]c3ccccc3n12`: the TGI is above 75 µM.
Compound `O=C(NCCCCCCNCc1cccc2ccccc12)Nc1cccc2ccccc12` yielded a TGI above 100 µM.
For the compound `OCC1OC(n2cnc3c(Cl)nc(Nc4ccccc4)nc32)CC1O` (centres undefined), the TGI was above 100 µM.
`CC1(CF)SCc2nc3ccccc3n21` (centres undefined) yielded a TGI above 100 µM.
For the compound `C[C@]12CCc3nc(Nc4ccccc4)sc3C1=CC[C@@H]1[C@@H]2CC[C@]2(C)/C(=N/NC(N)=S)CC[C@@H]12`, the GI50 is 6.1 µM and the TGI was above 100 µM.
`NCCSc1nc2ccccc2c(=O)n1-c1ccccc1` showed a TGI above 100 µM.
On to `Nc1cccc(Nc2nc3ccccc3nc2NS(=O)(=O)c2ccccc2)c1`, for which the concentration for total growth inhibition (TGI) was above 100 µM.
Same read-out and setting: as for `O=c1[nH]nc(Cc2ccc([N+](=O)[O-])cc2)n1CCO`, the figure is above 100 µM; as for `N#Cc1c(-c2ccccc2)nc(-c2ccccc2)sc1=S`, above 100 µM; as for `CCn1nc2c3c(ncn3C(C)(C)O2)c1=O`, above 100 µM.
`O=C(O)CC[N+]1=CCC(c2ccccc2)(c2ccccc2)O1` yielded a total growth inhibition concentration (TGI) above 100 µM.
Turning to `O=C1CCCCC(=O)OC2(CCCCC2=O)CC1` (centres undefined), the TGI is above 100 µM.
Take `CCC(C#N)NC(=O)NC(C#N)CC` (centres undefined): the TGI was above 100 µM.
In turn, `CCOC(=O)/C=C(/C(=O)OCC)n1ccc(N)nc1=O` yielded a TGI above 100 µM.
Take `CCCSc1ccc2[nH]c(/N=C/c3ccco3)cc2c1`: the TGI is above 100 µM.
The same measure, in the same setting: as for `Cc1cn(C2CC(n3cc(Cn4cc(Br)c(=O)[nH]c4=O)nn3)C(CO)O2)c(=O)[nH]c1=O` (centres undefined), the figure is above 100 µM; as for `C1CNCCNCCN1`, above 100 µM; as for `CC1Cn2c(nc3ccccc32)NC1=O` (centres undefined), above 100 µM.
Compound `O=c1nc2c(c(-c3ccccc3Cl)[nH]1)COC/C2=C\c1ccccc1Cl` came in with a total growth inhibition concentration (TGI) above 100 µM.

The values above are taken from PubChem BioAssay (NCI).
